Test results taken from patent publication US11484516B2, “Agents for increasing meibomian gland lipid secretion” (Azura Ophthalmics Ltd., priority 2017, dated 2022).

Assays:
HaCaT cells = assay: HaCaT turnover rate determination (BrdU assay); format: cell-based; conditions: BrdU incorporation, non-toxic concentrations
Protocol: (§1) Dose response and time course analyses was performed initially in order to evaluate the impact of bucillamine on HaCaT cell viability. Then, selected non-toxic concentrations were further evaluated by BrdU incorporation to determine the ability of the test item to reduce the keratinocyte proliferation rate. In addition, the ability of the test items to reduce thiol moieties, and therefore loosen the blockage of the meibomian gland, was tested on stratum corneum obtained from human skin.
(§2) The cells were incubated without or with six concentrations of the test item, for 24, 48 and 72 hr at 37° C. with 5% CO2 under humidified conditions. At the end of each incubation period, cell viability was measured by MTT assay. A blank control was subtracted from all the measurements. HaCaT Turnover Rate Determination The proliferation rate of HaCaT cells upon treatments with the test item was examined by using the BrdU assay. Colorimetric evaluation of the turnover rate was recorded by ELISA reader. Ex Vivo Assessment in the Human Skin Model System The human skin organ culture was obtained from healthy patient undergoing plastic surgery. The study was initiated the day of surgery.

[1] = Ex vivo free thiol determination in the human skin model system; conditions: non-toxic concentrations
Protocol: as §1, §2
To isolate the free thiol from the mixture of the samples, samples were incubated with equal volume of TCA (trichloroacetic acid) for 5 min. […] The pellets were evaluated.

[2] = test system: 3D Sebocytes culture (human cell line SEBO662); assay: Lipid accumulation (Oil-red-O staining) in 3D model culture of Sebocytes; format: cell-based; conditions: 14 days incubation, lipid droplet surface area
Description: Since secretory cells (meibocytes) of meibomian glands, share similarities with that of the secretory cells (sebocytes) of sebaceous glands, as can be validated from their similar structure, similar function and their joint embryologic development (Knop 2011_IOVS) the effect of Thiol containing Lipids on lipid production can be evaluated in a 3D model culture of Sebocytes. See also: Barrault 2012, Immortalized sebocytes can spontaneously differentiate into a sebaceous-like phenotype when cultured as a 3D epithelium, Exp. Derm, 21:299-319
The effect of different compounds on lipid synthesis was evaluated, in a 3D model culture of Sebocytes. Drug candidates were compounds comprising a thiol group. Selenium disulfide (SeS2 dispersed in CarboxymethylCellulose—CMC) as a positive control. Since Sebocytes differentiation is associated with increased lipid synthesis and accumulation, evaluation of proliferation and differentiation was done by quantifying lipid accumulation in the 3D Sebocytes culture (human cell line—SEBO662). Lipid accumulation was evaluated by lipid staining with Oil red staining.
Sebocytes SEBO662 were cultured into a three dimension (3D) epithelium and differentiated to a sebaceous-like phenotype. The Sebocytes were treated or not (control) with the test compounds and incubated for 14 days. All experiments were performed 3 times. After incubation, tissues were snap-frozen. Formaldehyde-fixed cryo sections were stained using an Oil-red-O solution and counterstained using haematoxylin. For each test condition, the sections were observed using a light microscope equipped with a camera. Five pictures were taken per replicate, making 15 values per treatment condition. The lipid content in each sample was quantified by calculation of the lipid droplet surface area. Quantitative comparison of all data points between lipid's droplet surface area of tested compounds versus control was performed

Compound	keratostatic efficacy: turnover rate of the keratinocytes cells (HaCaT cells)	increase of free thiol moieties (keratolytic efficacy) [1]	lipid accumulation in the upper region of the 3D Sebocytes (% of the control) ([2]; 0.01 μM)	lipid accumulation in the upper region of the 3D Sebocytes (% of the control) ([2]; 0.1 μM)	lipid accumulation in the upper region of the 3D Sebocytes (% of the control) ([2]; 1 μM)
CC(C)(S)C(=O)N[C@@H](CS)C(=O)O [Bucillamine, bucillamine]	reducing the turnover rate	approx. 6 fold	115 % of the control	172 % of the control	214 % of the control
S=[Se]=S [Selenium disulfide]			282 % of the control	348 % of the control	
